Data on ten molecules can be found in patent publication US20230002357A1, “7-PYRIMIDINE-2-YL-OXY-INDAZOLE DERIVATIVES AND THEIR USE AS HERBICIDES” (SYNGENTA CROP PROTECTION AG, priority 2019, published 2023).

What all share (format): in vivo
Holding throughout (conditions): 250 g/ha, evaluated after 13 days

In assay [1] the test system is IPOHE. Briefly: Post-emergence Test, glasshouse, IPOHE. Put shortly: (§1)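 Damage was scored 13 days after treatment on a five-point scale (1=0-20% up to 5=81-100%). Plants in soil were sprayed one day after sowing for pre-emergence or eight days after for post-emergence, at 250 g/ha unless otherwise stated. The glasshouse was held at 24/16 °C with 14 h light.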
Assay [2] concerns Setaria faberi (SETFA). Description: Pre-emergence Test, glasshouse, SETFA. Put shortly:
as §1

Assay [3] deals with Echinochloa crus-galli (ECHCG). Briefly: Pre-emergence Test, glasshouse, ECHCG. How it is done:
(§2) Seeds of a variety of test species are sown in standard soil in pots Amaranthus retoflexus (AMARE), Echinochloa crus-galli (ECHCG), Setaria faberi (SETFA)). After cultivation for one day (pre-emergence) or after 8 days cultivation (post-emergence) under controlled conditions in a glasshouse (at 24/16° C., day/night; 14 hours light; 65% humidity), the plants are sprayed with an aqueous spray solution derived from the formulation of the technical active ingredient in acetone/water (50:50) solution containing 0.5% Tween™ 20 (polyoxyethelyene sorbitan monolaurate, CAS RN 9005-64-5). Compounds are applied at 250 g/ha unless otherwise stated. The test plants are then grown in a glasshouse under controlled conditions in a glasshouse (at 24/16° C., day/night; 14 hours light; 65% humidity) and watered twice daily. After 13 days for pre- and post-emergence, the test is evaluated for the percentage damage caused to the plant. The biological activities are shown in the following table on a five-point scale (5=81-100%; 4=61-80%; 3=41-60%; 2=21-40%; 1=0-20%).

The test system of assay [4] is IPOHE. Description: Pre-emergence Test, glasshouse, IPOHE. The essentials: as §1
For assay [5], the system named is ABUTH. Briefly: Post-emergence Test, glasshouse, ABUTH. The essentials: as §1
The test system of assay [6] is Amaranthus retoflexus (AMARE). Description: Post-emergence Test, glasshouse, AMARE. Put shortly: as §1
Assay [7] concerns ABUTH. Description: Pre-emergence Test, glasshouse, ABUTH. Put shortly: as §1
In assay [8] the test system is Setaria faberi (SETFA). Briefly: Post-emergence Test, glasshouse, SETFA. Put shortly: as §1
Assay [9] deals with Amaranthus retoflexus (AMARE). Description: Pre-emergence Test, glasshouse, AMARE. Put shortly:
as §1

The test system of assay [10] is Echinochloa crus-galli (ECHCG). Briefly: Post-emergence Test, glasshouse, ECHCG. How it is done:
as §2

Turning to `FC(F)(F)CCCn1nc(Br)c2c(Br)ccc(Oc3ncc(Cl)cn3)c21` [Compound 1.015], the “percentage damage caused to the plant, five-point scale, IPOHE” value (shortened to “percentage damage caused … IPOHE”) with IPOHE [1] and in the assay on IPOHE [4] was 1 (1=0-20%) each time. Further, the results for the “percentage damage caused to the plant, five-point scale, SETFA” value (“percentage damage caused … SETFA” for short) in the assay on Setaria faberi (SETFA) [2] and in the assay with Setaria faberi (SETFA) [8] were 1 (1=0-20%) and 2 (2=21-40%), respectively. In addition, the “percentage damage caused to the plant, five-point scale, ECHCG” value (“percentage damage caused … ECHCG” below) was 1 (1=0-20%) in [3] and 2 (2=21-40%) in assay [10]. The “percentage damage caused to the plant, five-point scale, ABUTH” value (shortened to “percentage damage caused … ABUTH”) in the assay with ABUTH [5] was 4 (4=61-80%); in the assay on ABUTH [7], 1 (1=0-20%). Also, the “percentage damage caused to the plant, five-point scale, AMARE” value (“percentage damage caused … AMARE” for short) in [6] is on record as 4 (4=61-80%); in assay [9] it was 2 (2=21-40%).
Regarding `FC(F)(F)CCCn1nc(Br)c2cc(Br)cc(Oc3ncc(Cl)cn3)c21` [Compound 1.016], the “percentage damage caused … IPOHE” value in the assay on IPOHE [1] and with IPOHE [4] was 1 (1=0-20%) throughout. Besides, the “percentage damage caused … SETFA” value with Setaria faberi (SETFA) [2] and with Setaria faberi (SETFA) [8] was 1 (1=0-20%) in each case. For the same molecule, the “percentage damage caused … ECHCG” value in [3] and in assay [10] was 1 (1=0-20%) each time. The “percentage damage caused … ABUTH” value in the assay with ABUTH [5] is reported as 2 (2=21-40%); in the assay on ABUTH [7] it was 1 (1=0-20%). The “percentage damage caused … AMARE” value in assay [6] was 4 (4=61-80%); in assay [9], 1 (1=0-20%).
Take `N#Cc1cc(Cl)cnc1Oc1cc(Cl)cc2cnn(CCCC(F)(F)F)c12` [Compound 1.017]: the “percentage damage caused … IPOHE” value with IPOHE [1] and in the assay on IPOHE [4] was 1 (1=0-20%) throughout. Also, the “percentage damage caused … SETFA” value in the assay with Setaria faberi (SETFA) [2] and in the assay with Setaria faberi (SETFA) [8] was 1 (1=0-20%) in each case. Besides, the “percentage damage caused … ECHCG” value in assay [3] and in assay [10] was 1 (1=0-20%) throughout. The “percentage damage caused … ABUTH” value in the assay with ABUTH [5] and in the assay on ABUTH [7] was 1 (1=0-20%) each time. The “percentage damage caused … AMARE” value in [6] is on record as 4 (4=61-80%); in [9], 1 (1=0-20%).
For the molecule `FC(F)(F)CCCn1nc(Cl)c2c(Cl)c(Br)cc(Oc3ncc(Cl)cn3)c21` [Compound 1.019], the “percentage damage caused … IPOHE” value in the assay on IPOHE [1] and in the assay with IPOHE [4] was 1 (1=0-20%) in each case. For the same molecule, the “percentage damage caused … SETFA” value is reported as 1 (1=0-20%) in the assay with Setaria faberi (SETFA) [2] and 2 (2=21-40%) with Setaria faberi (SETFA) [8]. For the same molecule, the “percentage damage caused … ECHCG” value in assay [3] was 1 (1=0-20%); in assay [10], 2 (2=21-40%). Also, the “percentage damage caused … ABUTH” value in the assay with ABUTH [5] and in the assay with ABUTH [7] was 1 (1=0-20%) in each case. The “percentage damage caused … AMARE” value in assay [6] is recorded as 4 (4=61-80%); in assay [9], 1 (1=0-20%).
Turning to `Fc1cc(Cl)cnc1Oc1ccc(Cl)c2cnn(CCCC(F)(F)F)c12` [Compound 1.031], the “percentage damage caused … IPOHE” value in the assay on IPOHE [1] and with IPOHE [4] was 1 (1=0-20%) each time. Also, the “percentage damage caused … SETFA” value in the assay with Setaria faberi (SETFA) [2] and with Setaria faberi (SETFA) [8] was 1 (1=0-20%) in each case. In addition, the “percentage damage caused … ECHCG” value in assay [3] and in assay [10] was 1 (1=0-20%) each time. Moreover, the “percentage damage caused … ABUTH” value in the assay on ABUTH [5] and in the assay with ABUTH [7] was 1 (1=0-20%) each time. Besides, the “percentage damage caused … AMARE” value in assay [6] is 4 (4=61-80%); in [9], 1 (1=0-20%).
As to `COc1nn(CCCC(F)(F)F)c2c(Oc3ncc(Cl)cn3)cccc12` [Compound 1.033, 7-(5-chloropyrimidin-2-yl)oxy-3-methoxy-1-(4,4,4-trifluorobutyl)indazole], the “percentage damage caused … IPOHE” value in the assay on IPOHE [1] and in the assay on IPOHE [4] was 1 (1=0-20%) throughout. Also, the “percentage damage caused … SETFA” value in the assay on Setaria faberi (SETFA) [2] and in the assay with Setaria faberi (SETFA) [8] was 1 (1=0-20%) each time. The “percentage damage caused … ECHCG” value in assay [3] and in [10] was 1 (1=0-20%) throughout. Besides, the “percentage damage caused … ABUTH” value in the assay with ABUTH [5] and with ABUTH [7] was 1 (1=0-20%) throughout. The figures for the “percentage damage caused … AMARE” value in assay [6] and in assay [9] were 1 (1=0-20%) and 2 (2=21-40%), respectively.
With `COCCn1nc(Cl)c2cccc(Oc3ncc(Cl)cn3)c21` [Compound 1.034], the “percentage damage caused … IPOHE” value in the assay on IPOHE [1] is recorded as 4 (4=61-80%); with IPOHE [4] it was 3 (3=41-60%). Moreover, the figures for the “percentage damage caused … SETFA” value with Setaria faberi (SETFA) [2] and in the assay on Setaria faberi (SETFA) [8] were 5 (5=81-100%) and 4 (4=61-80%), respectively. The “percentage damage caused … ECHCG” value in assay [3] is 5 (5=81-100%); in assay [10] it was 4 (4=61-80%). For the same molecule, the “percentage damage caused … ABUTH” value in the assay with ABUTH [5] is given as 4 (4=61-80%); in the assay on ABUTH [7], 2 (2=21-40%). The “percentage damage caused … AMARE” value in assay [6] and in assay [9] was 5 (5=81-100%) in each case.
Turning to `FC(F)(F)CCn1nc(Cl)c2cccc(Oc3ncc(Cl)cn3)c21` [Compound 1.035], the “percentage damage caused … IPOHE” value is reported as 4 (4=61-80%) with IPOHE [1] and 3 (3=41-60%) in the assay on IPOHE [4]. For the same molecule, the “percentage damage caused … SETFA” value in the assay with Setaria faberi (SETFA) [2] is listed as 5 (5=81-100%); in the assay with Setaria faberi (SETFA) [8] it was 4 (4=61-80%). In addition, the “percentage damage caused … ECHCG” value in [3] and in [10] was 5 (5=81-100%) in each case. Further, the “percentage damage caused … ABUTH” value was 5 (5=81-100%) in the assay on ABUTH [5] and 3 (3=41-60%) with ABUTH [7]. The “percentage damage caused … AMARE” value is listed as 5 (5=81-100%) in [6] and 4 (4=61-80%) in assay [9].
For `FC(F)(F)CCCn1ncc2ccc(Br)c(Oc3ncc(Cl)cn3)c21` [Compound 1.036], the “percentage damage caused … IPOHE” value with IPOHE [1] and in the assay on IPOHE [4] was 1 (1=0-20%) throughout. Moreover, the “percentage damage caused … SETFA” value in the assay with Setaria faberi (SETFA) [2] and in the assay on Setaria faberi (SETFA) [8] was 1 (1=0-20%) in each case. Moreover, the “percentage damage caused … ECHCG” value in assay [3] and in assay [10] was 1 (1=0-20%) in each case. The “percentage damage caused … ABUTH” value in the assay on ABUTH [5] and in the assay on ABUTH [7] was 1 (1=0-20%) in each case. Moreover, the “percentage damage caused … AMARE” value in assay [6] and in [9] was 1 (1=0-20%) each time.
For the molecule `FC(F)(F)CCCn1nc(Cl)c2ccc(Br)c(Oc3ncc(Cl)cn3)c21` [Compound 1.037], the “percentage damage caused … IPOHE” value in the assay with IPOHE [1] and in the assay with IPOHE [4] was 1 (1=0-20%) in each case. Further, the “percentage damage caused … SETFA” value in the assay with Setaria faberi (SETFA) [2] and in the assay with Setaria faberi (SETFA) [8] was 1 (1=0-20%) each time. Moreover, the “percentage damage caused … ECHCG” value in [3] and in [10] was 1 (1=0-20%) throughout. Moreover, the “percentage damage caused … ABUTH” value with ABUTH [5] and in the assay on ABUTH [7] was 1 (1=0-20%) throughout. The entries for the “percentage damage caused … AMARE” value in assay [6] and in assay [9] were 2 (2=21-40%) and 1 (1=0-20%), respectively.
